According to patent US9156845B2, “4-(substituted amino)-7H-pyrrolo[2,3-d] pyrimidines as LRRK2 inhibitors” (Pfizer Inc., priority 2012, dated 2015):
Like-named read-outs stand apart in the source and are kept apart here.

Tests used:
Test in all cases: ActivX kinase probe assay (human PBMC)
Format in all cases: binding
[1] = tested on: ABL, ARG
[2] = target: BRAF (Homo sapiens (Human), UniProt P15056); conditions: read-out: percent inhibition
[3] = target: BTK (Homo sapiens (Human), UniProt Q06187); conditions: read-out: percent inhibition
Chain of BTK (Q06187 whole entry): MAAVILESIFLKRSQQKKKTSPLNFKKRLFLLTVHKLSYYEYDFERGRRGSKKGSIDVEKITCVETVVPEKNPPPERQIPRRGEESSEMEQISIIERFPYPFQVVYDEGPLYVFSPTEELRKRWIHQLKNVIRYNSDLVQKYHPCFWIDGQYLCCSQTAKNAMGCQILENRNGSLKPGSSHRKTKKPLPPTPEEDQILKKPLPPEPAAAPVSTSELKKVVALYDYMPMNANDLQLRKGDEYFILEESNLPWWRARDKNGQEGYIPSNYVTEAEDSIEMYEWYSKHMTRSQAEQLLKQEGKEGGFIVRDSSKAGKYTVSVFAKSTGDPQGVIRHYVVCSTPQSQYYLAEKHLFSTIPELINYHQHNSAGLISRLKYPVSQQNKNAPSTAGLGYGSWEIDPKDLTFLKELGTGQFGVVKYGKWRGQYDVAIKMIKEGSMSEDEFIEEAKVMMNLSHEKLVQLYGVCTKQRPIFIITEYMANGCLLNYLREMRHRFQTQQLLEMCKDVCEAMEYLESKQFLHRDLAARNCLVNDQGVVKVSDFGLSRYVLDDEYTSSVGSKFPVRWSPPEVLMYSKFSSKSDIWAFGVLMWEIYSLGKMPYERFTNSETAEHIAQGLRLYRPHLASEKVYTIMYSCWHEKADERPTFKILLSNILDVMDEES

[4] = target: CaMK1d (Homo sapiens (Human), UniProt Q8IU85); conditions: read-out: percent inhibition
Chain of CaMK1d (Q8IU85 whole entry): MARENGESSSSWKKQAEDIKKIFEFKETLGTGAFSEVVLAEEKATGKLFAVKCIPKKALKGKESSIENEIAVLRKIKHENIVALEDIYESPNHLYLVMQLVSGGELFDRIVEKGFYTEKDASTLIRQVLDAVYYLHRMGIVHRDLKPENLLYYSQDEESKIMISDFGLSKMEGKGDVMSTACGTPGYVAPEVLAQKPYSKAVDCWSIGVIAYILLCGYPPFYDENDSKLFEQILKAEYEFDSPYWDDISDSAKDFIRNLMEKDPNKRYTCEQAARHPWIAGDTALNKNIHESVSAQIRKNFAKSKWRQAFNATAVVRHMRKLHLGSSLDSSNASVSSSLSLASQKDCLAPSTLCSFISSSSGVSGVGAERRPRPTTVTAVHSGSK

[5] = tested on: CDK11, CDK8
[6] = target: CDK5 (Homo sapiens (Human), UniProt Q00535); conditions: read-out: percent inhibition
[7] = target: Erk5 (Homo sapiens (Human), UniProt Q13164); conditions: read-out: percent inhibition
[8] = target: GPRK6 (Homo sapiens (Human), UniProt P43250); conditions: read-out: percent inhibition
[9] = target: GSK3B (Homo sapiens (Human), UniProt P49841); conditions: read-out: percent inhibition
[10] = target: IRAK4 (Homo sapiens (Human), UniProt Q9NWZ3); conditions: read-out: percent inhibition
[11] = target: JAK1 domain2 (Homo sapiens (Human), UniProt P23458); conditions: read-out: percent inhibition
[12] = tested on: JNK1, JNK2, JNK3
[13] = target: KHS1 (Homo sapiens (Human), UniProt Q9Y4K4); conditions: read-out: percent inhibition
[14] = tested on: KSR1, KSR2
[15] = target: MAP2K1 (Homo sapiens (Human), UniProt Q02750); conditions: read-out: percent inhibition
Chain of MAP2K1 (Q02750 whole entry): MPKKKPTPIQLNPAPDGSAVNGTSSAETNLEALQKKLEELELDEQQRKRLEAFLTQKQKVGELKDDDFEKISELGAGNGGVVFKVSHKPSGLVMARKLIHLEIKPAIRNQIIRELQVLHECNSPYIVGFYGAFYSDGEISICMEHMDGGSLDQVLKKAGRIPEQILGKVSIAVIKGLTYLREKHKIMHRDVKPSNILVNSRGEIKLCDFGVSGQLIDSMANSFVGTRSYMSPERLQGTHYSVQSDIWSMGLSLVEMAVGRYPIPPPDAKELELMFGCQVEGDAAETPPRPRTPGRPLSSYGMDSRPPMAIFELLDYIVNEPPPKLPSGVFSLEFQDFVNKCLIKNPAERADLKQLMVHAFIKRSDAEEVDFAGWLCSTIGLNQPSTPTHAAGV

[16] = tested on: MAP2K1, MAP2K2
[17] = target: MAP2K6 (Homo sapiens (Human), UniProt P52564); conditions: read-out: percent inhibition
[18] = target: MAP3K1 (Homo sapiens (Human), UniProt Q13233); conditions: read-out: percent inhibition
[19] = target: MARK2 (Homo sapiens (Human), UniProt Q7KZI7); conditions: read-out: percent inhibition
[20] = target: MLK3 (Homo sapiens (Human), UniProt Q16584); conditions: read-out: percent inhibition
[21] = tested on: MST4, YSK1
[22] = target: NDR1 (Homo sapiens (Human), UniProt Q15208); conditions: read-out: percent inhibition
Chain of NDR1 (Q15208 whole entry): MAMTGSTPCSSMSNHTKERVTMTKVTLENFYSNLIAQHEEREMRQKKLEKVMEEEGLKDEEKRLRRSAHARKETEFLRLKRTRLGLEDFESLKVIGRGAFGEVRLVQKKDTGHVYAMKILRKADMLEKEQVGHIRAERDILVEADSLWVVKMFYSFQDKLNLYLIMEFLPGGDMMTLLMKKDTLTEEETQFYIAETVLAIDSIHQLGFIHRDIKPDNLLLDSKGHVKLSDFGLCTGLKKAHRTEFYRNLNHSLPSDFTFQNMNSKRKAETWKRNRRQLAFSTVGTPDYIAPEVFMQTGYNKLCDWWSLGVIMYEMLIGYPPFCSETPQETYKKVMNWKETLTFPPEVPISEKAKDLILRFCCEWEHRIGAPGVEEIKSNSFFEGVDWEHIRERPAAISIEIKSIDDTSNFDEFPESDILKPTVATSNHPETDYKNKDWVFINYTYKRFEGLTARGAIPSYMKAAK

[23] = target: NDR2 (Homo sapiens (Human), UniProt Q9Y2H1); conditions: read-out: percent inhibition
[24] = tested on: p38d, p38g
[25] = tested on: p70S6K, p70S6Kb
[26] = target: PIK3CD (Homo sapiens (Human), UniProt O00329); conditions: read-out: percent inhibition
[27] = target: PIK3CG (Homo sapiens (Human), UniProt P48736); conditions: read-out: percent inhibition
[28] = target: PIP4K2A (Homo sapiens (Human), UniProt P48426); conditions: read-out: percent inhibition
Chain of PIP4K2A (P48426 whole entry): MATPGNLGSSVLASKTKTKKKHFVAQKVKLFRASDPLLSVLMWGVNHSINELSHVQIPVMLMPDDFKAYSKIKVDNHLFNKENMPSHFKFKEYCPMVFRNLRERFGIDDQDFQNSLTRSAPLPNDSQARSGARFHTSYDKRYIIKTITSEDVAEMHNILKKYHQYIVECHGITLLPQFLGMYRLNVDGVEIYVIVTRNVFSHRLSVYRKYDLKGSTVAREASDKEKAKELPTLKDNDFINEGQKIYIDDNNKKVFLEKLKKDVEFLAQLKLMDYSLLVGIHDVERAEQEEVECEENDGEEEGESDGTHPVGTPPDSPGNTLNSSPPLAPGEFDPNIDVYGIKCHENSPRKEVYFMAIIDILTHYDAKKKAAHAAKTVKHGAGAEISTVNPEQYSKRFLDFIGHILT

[29] = target: PKD2 (Homo sapiens (Human), UniProt Q9BZL6); conditions: read-out: percent inhibition
[30] = target: PKR (Homo sapiens (Human), UniProt P19525); conditions: read-out: percent inhibition
Chain of PKR (P19525 whole entry, the tested form may be a part): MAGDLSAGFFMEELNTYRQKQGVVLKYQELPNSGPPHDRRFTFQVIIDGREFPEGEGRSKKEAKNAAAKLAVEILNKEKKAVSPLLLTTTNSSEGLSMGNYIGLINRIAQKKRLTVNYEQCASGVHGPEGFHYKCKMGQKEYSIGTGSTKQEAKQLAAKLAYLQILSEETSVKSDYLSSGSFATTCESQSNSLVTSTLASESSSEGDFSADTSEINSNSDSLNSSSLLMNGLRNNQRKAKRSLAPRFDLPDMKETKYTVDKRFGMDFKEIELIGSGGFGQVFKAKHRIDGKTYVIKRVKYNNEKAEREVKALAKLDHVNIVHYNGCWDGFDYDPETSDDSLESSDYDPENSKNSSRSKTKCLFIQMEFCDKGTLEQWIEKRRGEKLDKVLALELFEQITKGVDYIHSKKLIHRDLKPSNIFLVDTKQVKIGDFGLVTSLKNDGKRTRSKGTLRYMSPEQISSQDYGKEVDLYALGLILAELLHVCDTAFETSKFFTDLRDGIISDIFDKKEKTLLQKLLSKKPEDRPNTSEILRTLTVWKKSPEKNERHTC

[31] = target: RSK1 domain2 (Homo sapiens (Human), UniProt Q15418); conditions: read-out: percent inhibition
[32] = target: SYK (Homo sapiens (Human), UniProt P43405); conditions: read-out: percent inhibition
[33] = target: TLK1 (Homo sapiens (Human), UniProt Q9UKI8); conditions: read-out: percent inhibition
[34] = target: TLK2 (Homo sapiens (Human), UniProt Q86UE8); conditions: read-out: percent inhibition
Chain of TLK2 (Q86UE8 whole entry): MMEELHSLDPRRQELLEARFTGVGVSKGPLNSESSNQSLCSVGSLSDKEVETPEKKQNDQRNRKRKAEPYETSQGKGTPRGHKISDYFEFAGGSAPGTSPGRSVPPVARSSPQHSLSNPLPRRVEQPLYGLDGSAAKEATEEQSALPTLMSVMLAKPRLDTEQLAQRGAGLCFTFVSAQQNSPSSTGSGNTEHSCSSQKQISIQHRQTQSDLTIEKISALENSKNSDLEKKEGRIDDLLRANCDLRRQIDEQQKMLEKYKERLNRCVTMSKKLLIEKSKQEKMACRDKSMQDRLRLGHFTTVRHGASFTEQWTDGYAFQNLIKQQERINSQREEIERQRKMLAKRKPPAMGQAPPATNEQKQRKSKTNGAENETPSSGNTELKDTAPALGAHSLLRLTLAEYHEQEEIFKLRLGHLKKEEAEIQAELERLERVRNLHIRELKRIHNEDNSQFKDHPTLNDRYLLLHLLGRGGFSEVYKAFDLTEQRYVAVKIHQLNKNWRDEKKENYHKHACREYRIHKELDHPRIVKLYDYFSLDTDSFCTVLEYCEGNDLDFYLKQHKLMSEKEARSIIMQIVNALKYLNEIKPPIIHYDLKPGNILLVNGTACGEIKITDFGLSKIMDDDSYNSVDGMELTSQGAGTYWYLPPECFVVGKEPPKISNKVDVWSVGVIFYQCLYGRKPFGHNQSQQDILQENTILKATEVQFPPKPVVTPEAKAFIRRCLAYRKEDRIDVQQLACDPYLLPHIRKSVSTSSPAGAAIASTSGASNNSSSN

[35] = tested on: Wnk1, Wnk2, Wnk3
[36] = target: ZAP70 (Homo sapiens (Human), UniProt P43403); conditions: read-out: percent inhibition
Chain of ZAP70 (P43403 whole entry): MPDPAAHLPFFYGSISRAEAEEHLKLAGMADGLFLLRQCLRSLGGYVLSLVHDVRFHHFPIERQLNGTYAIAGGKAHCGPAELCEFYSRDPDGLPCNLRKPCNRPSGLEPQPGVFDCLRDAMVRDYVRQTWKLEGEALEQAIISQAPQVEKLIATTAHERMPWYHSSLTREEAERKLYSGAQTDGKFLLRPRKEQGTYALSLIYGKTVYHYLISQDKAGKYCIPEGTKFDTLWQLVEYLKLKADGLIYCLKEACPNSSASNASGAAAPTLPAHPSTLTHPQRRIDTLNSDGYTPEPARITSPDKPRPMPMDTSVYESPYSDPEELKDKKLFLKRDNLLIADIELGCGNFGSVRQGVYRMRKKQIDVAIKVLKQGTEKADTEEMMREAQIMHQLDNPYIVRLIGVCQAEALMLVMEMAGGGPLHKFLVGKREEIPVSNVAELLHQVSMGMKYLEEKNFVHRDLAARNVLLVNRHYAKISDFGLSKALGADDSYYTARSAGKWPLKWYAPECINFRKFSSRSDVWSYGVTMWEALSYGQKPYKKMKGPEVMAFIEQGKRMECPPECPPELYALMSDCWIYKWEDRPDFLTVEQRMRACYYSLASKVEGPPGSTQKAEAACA

Chain of BRAF (P15056 whole entry): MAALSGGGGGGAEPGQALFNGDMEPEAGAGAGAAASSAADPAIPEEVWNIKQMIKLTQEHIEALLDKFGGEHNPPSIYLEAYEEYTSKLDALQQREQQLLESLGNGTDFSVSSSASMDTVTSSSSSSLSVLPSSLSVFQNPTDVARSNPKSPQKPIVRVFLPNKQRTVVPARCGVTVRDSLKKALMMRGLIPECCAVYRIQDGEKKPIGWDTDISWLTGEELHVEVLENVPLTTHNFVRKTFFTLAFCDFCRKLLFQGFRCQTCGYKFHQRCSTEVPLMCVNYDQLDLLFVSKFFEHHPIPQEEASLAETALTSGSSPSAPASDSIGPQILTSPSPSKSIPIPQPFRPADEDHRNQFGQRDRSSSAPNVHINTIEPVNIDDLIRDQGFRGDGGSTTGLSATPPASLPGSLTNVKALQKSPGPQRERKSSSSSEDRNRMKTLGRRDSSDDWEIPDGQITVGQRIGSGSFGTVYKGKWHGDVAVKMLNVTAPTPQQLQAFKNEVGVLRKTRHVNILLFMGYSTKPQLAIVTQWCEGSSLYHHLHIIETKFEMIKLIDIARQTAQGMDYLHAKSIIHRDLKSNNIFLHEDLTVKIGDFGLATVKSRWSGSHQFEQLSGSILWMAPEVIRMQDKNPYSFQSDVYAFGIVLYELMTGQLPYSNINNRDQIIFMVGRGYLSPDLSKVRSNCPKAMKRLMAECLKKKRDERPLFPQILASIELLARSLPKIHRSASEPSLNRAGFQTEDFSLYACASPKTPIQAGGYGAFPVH

N#Cc1cccc(-c2c[nH]c3ncnc(N4CCOCC4)c23)c1 [Example 4, 3-[4-(Morpholin-4-yl)-7H-pyrrolo[2,3-d]pyrimidin-5-yl]benzonitrile]
percent inhibition ([1]; 0.1 μM): −29.4%
percent inhibition ([1]; 1 μM): −0.9%
inhibition at 0.1 µM [2]: 1.2%
inhibition at 1 µM [2]: -1.2%
inhibition at 0.1 µM [3]: -2.2%
inhibition at 1 µM [3]: 9.5%
inhibition at 0.1 µM [4]: -12.1%
inhibition at 1 µM [4]: 0.9%
percent inhibition ([5]; 0.1 μM): 5%
percent inhibition ([5]; 1 μM): 36%
inhibition at 0.1 µM [6]: -12.2%
inhibition at 1 µM [6]: 0.1%
inhibition at 0.1 µM [7]: -5%
inhibition at 1 µM [7]: -6.3%
inhibition at 0.1 µM [8]: -3.9%
inhibition at 1 µM [8]: 10.9%
inhibition at 0.1 µM [9]: -3.7%
inhibition at 1 µM [9]: 6.7%
inhibition at 0.1 µM [10]: -12.8%
inhibition at 1 µM [10]: 10.7%
inhibition at 0.1 µM [11]: -6.2%
inhibition at 1 µM [11]: 18.9%
percent inhibition ([12]; 0.1 μM): −5.3%
percent inhibition ([12]; 1 μM): 5.4%
inhibition at 0.1 µM [13]: -25.9%
inhibition at 1 µM [13]: 12.9%
percent inhibition ([14]; 0.1 μM): −8.7%
percent inhibition ([14]; 1 μM): 11.7%
inhibition at 0.1 µM [15]: -17.2%
inhibition at 1 µM [15]: 14%
percent inhibition ([16]; 0.1 μM): −7.1%
percent inhibition ([16]; 1 μM): 6.4%
inhibition at 0.1 µM [17]: -15.1%
inhibition at 1 µM [17]: 13.5%
inhibition at 0.1 µM [18]: 6.4%
inhibition at 1 µM [18]: 44.5%
inhibition at 0.1 µM [19]: -4.7%
inhibition at 1 µM [19]: 27.3%
inhibition at 0.1 µM [20]: -14.1%
inhibition at 1 µM [20]: 19.9%
percent inhibition ([21]; 0.1 μM): 11.9%
percent inhibition ([21]; 1 μM): 60.7%
inhibition at 0.1 µM [22]: -4.4%
inhibition at 1 µM [22]: 1.7%
inhibition at 0.1 µM [23]: -18.7%
inhibition at 1 µM [23]: 22.1%
percent inhibition ([24]; 0.1 μM): −17.5%
percent inhibition ([24]; 1 μM): −5.7%
percent inhibition ([25]; 0.1 μM): −10.5%
percent inhibition ([25]; 1 μM): −9.6%
inhibition at 0.1 µM [26]: -14%
inhibition at 1 µM [26]: -12.4%
inhibition at 0.1 µM [27]: -20.4%
inhibition at 1 µM [27]: -5.6%
inhibition at 0.1 µM [28]: -12.1%
inhibition at 1 µM [28]: 1.9%
inhibition at 0.1 µM [29]: 0.7%
inhibition at 1 µM [29]: 9.4%
inhibition at 0.1 µM [30]: -3.3%
inhibition at 1 µM [30]: 7.2%
inhibition at 0.1 µM [31]: 2.7%
inhibition at 1 µM [31]: 55.8%
inhibition at 0.1 µM [32]: -8.3%
inhibition at 1 µM [32]: 7.2%
inhibition at 0.1 µM [33]: -4.6%
inhibition at 1 µM [33]: -3.7%
inhibition at 0.1 µM [34]: -8.4%
inhibition at 1 µM [34]: -9.4%
percent inhibition ([35]; 0.1 μM): 1.7%
percent inhibition ([35]; 1 μM): −6%
inhibition at 0.1 µM [36]: -4.9%
inhibition at 1 µM [36]: 6.8%

Cn1cc(-c2c[nH]c3ncnc(N4CCOCC4)c23)cc1C#N [Example 217, 1-methyl-4-[4-(morpholin-4-yl)-7H-pyrrolo[2,3-d]pyrimidin-5-yl]-1H-pyrrole-2-carbonitrile]
percent inhibition ([1]; 0.1 μM): 4.6%
percent inhibition ([1]; 1 μM): −1.6%
inhibition at 0.1 µM ([2]; BRAF, 0.1 μM): -8.4%
inhibition at 1 µM ([2]; BRAF, 1 μM): -10.4%
inhibition at 0.1 µM ([3]; BTK, 0.1 μM): 24.3%
inhibition at 1 µM ([3]; BTK, 1 μM): 8.5%
inhibition at 0.1 µM ([4]; CaMK1d, 0.1 μM): 11.7%
inhibition at 1 µM ([4]; CaMK1d, 1 μM): 3.1%
percent inhibition ([5]; 0.1 μM): −5.6%
percent inhibition ([5]; 1 μM): −5.2%
inhibition at 0.1 µM ([6]; CDK5, 0.1 μM): 0.5%
inhibition at 1 µM ([6]; CDK5, 1 μM): 7.9%
inhibition at 0.1 µM ([7]; Erk5, 0.1 μM): -2.6%
inhibition at 1 µM ([7]; Erk5, 1 μM): -5.4%
inhibition at 0.1 µM ([8]; GPRK6, 0.1 μM): -0.8%
inhibition at 1 µM ([8]; GPRK6, 1 μM): 3.6%
inhibition at 0.1 µM ([9]; GSK3B, 0.1 μM): -4.3%
inhibition at 1 µM ([9]; GSK3B, 1 μM): 12.4%
inhibition at 0.1 µM ([10]; IRAK4, 0.1 μM): 14.7%
inhibition at 1 µM ([10]; IRAK4, 1 μM): 34.5%
inhibition at 0.1 µM ([11]; JAK1 domain2, 0.1 μM): 7.4%
inhibition at 1 µM ([11]; JAK1 domain2, 1 μM): 10.1%
percent inhibition ([12]; 0.1 μM): −18.2%
percent inhibition ([12]; 1 μM): −6.4%
inhibition at 0.1 µM ([13]; KHS1, 0.1 μM): 10.7%
inhibition at 1 µM ([13]; KHS1, 1 μM): 7.6%
percent inhibition ([14]; 0.1 μM): −6.2%
percent inhibition ([14]; 1 μM): −6.8%
inhibition at 0.1 µM ([15]; MAP2K1, 0.1 μM): 17.2%
inhibition at 1 µM ([15]; MAP2K1, 1 μM): -1.5%
percent inhibition ([16]; 0.1 μM): 10.9%
percent inhibition ([16]; 1 μM): −2.6%
inhibition at 0.1 µM ([17]; MAP2K6, 0.1 μM): 11.3%
inhibition at 1 µM ([17]; MAP2K6, 1 μM): -0.1%
inhibition at 0.1 µM ([18]; MAP3K1, 0.1 μM): -17.3%
inhibition at 1 µM ([18]; MAP3K1, 1 μM): 14.8%
inhibition at 0.1 µM ([19]; MARK2, 0.1 μM): -5%
inhibition at 1 µM ([19]; MARK2, 1 μM): 13.1%
inhibition at 0.1 µM ([20]; MLK3, 0.1 μM): -13.5%
inhibition at 1 µM ([20]; MLK3, 1 μM): -9.6%
percent inhibition ([21]; 0.1 μM): 5.3%
percent inhibition ([21]; 1 μM): 9.9%
inhibition at 0.1 µM ([22]; NDR1, 0.1 μM): 16.3%
inhibition at 1 µM ([22]; NDR1, 1 μM): -17.7%
inhibition at 0.1 µM ([23]; NDR2, 0.1 μM): 28.9%
inhibition at 1 µM ([23]; NDR2, 1 μM): -6%
percent inhibition ([24]; 0.1 μM): −0.4%
percent inhibition ([24]; 1 μM): 1.5%
percent inhibition ([25]; 0.1 μM): 5.5%
percent inhibition ([25]; 1 μM): 5.4%
inhibition at 0.1 µM ([26]; PIK3CD, 0.1 μM): -0.4%
inhibition at 1 µM ([26]; PIK3CD, 1 μM): 10%
inhibition at 0.1 µM ([27]; PIK3CG, 0.1 μM): -3.4%
inhibition at 1 µM ([27]; PIK3CG, 1 μM): -22%
inhibition at 0.1 µM ([28]; PIP4K2A, 0.1 μM): 7.8%
inhibition at 1 µM ([28]; PIP4K2A, 1 μM): 8.2%
inhibition at 0.1 µM ([29]; PKD2, 0.1 μM): 5.8%
inhibition at 1 µM ([29]; PKD2, 1 μM): 4.5%
inhibition at 0.1 µM ([30]; PKR, 0.1 μM): -7.7%
inhibition at 1 µM ([30]; PKR, 1 μM): 1.8%
inhibition at 0.1 µM ([31]; RSK1 domain2, 0.1 μM): -3.4%
inhibition at 1 µM ([31]; RSK1 domain2, 1 μM): 5%
inhibition at 0.1 µM ([32]; SYK, 0.1 μM): -2%
inhibition at 1 µM ([32]; SYK, 1 μM): -5.1%
inhibition at 0.1 µM ([33]; TLK1, 0.1 μM): 7.6%
inhibition at 1 µM ([33]; TLK1, 1 μM): 16.7%
inhibition at 0.1 µM ([34]; TLK2, 0.1 μM): 11.1%
inhibition at 1 µM ([34]; TLK2, 1 μM): 16%
percent inhibition ([35]; 0.1 μM): −6.3%
percent inhibition ([35]; 1 μM): −21.1%
inhibition at 0.1 µM ([36]; ZAP70, 0.1 μM): -25%
inhibition at 1 µM ([36]; ZAP70, 1 μM): -6%
